Source: US11440921B2, “Salts, crystal forms, and production methods thereof” (Sunovion Pharmaceuticals Inc., priority 2018, dated 2022)

Procedure: Approximately 200 mg of selected salts were weighed into clear glass HPLC vials. One milliliter of de-ionized water was added to each vial.

Substance: (S)-(4,5-dihydro-7H-thieno[2,3-c]pyran-7-yl)-N-methylmethanamine R-mandelate [(S)-TPMA R-mandelate]
- solubility in de-ionized water: freely soluble
- USP Descriptor (de-ionized water): Freely Soluble
- Final solution PH (de-ionized water, approx. 200 mg salt in 1 mL): 6.2
- Solubility (mgA/mL) (de-ionized water, expressed in terms of free base): >107 mgA/mL
